Literature values in patent US8109064B2, “Methods and systems for contact lens sterilization” (Menicon Signapore Pte Ltd., priority 2006, dated 2012).

Conditions: in vivo

polyhexamine biguanide [PHMB]
corneal staining: implicated in corneal staining
